Experimental data taken from US11959083B2, “Immunosuppression-reverting oligonucleotides inhibiting the expression of CD39” (Secarna Pharmaceuticals GmbH & Co. KG, priority 2016, dated 2024).
l = locked nucleic acid (LNA); d = 2'-deoxy (DNA)

How the values were obtained:
[1] = test system: hCD39 mRNA; assay: hCD39 mRNA knockdown efficacy screen in HDLM-2 cells (single dose, gymnotic delivery, QuantiGene Singleplex); assay type: cell-based, human; set-up: key to Relative hCD39 mRNA expression (compared to non-treated cells): *: values are below detection limit; conditions: 10 μM, 3 days; for Mean hCD39 mRNA expression normalized to HPRT1 relative to untreated control = 1: first screening round; for Relative hCD39 mRNA expression (compared to non-treated cells): second screening round, normalized to HPRT1; for Residual hCD39 mRNA expression relative to untreated cells (set as 1): third screening round
Protocol: (§1) FIGS. 2A to 2D depict hCD39 mRNA knockdown efficacy of hCD39 antisense oligonucleotides in human cancer cell lines HDLM-2 (human Hodgkin Lymphoma) in a first and second screening round (FIGS. 2A-1 and 2A-2) and 2B-1 and 2B-2 and A-172 (human glioblastoma) in a first and second screening round (FIGS. 2C-1 and 2C-2) and 2D-1 and 2D-2. HDLM-2 and A-172 cells were treated for 3 days with 10 μM of the respective antisense oligonucleotide. As negative control, cells were treated with neg1, an antisense oligonucleotide having the sequence CGTTTAGGCTATGTACTT (SEQ ID NO:99) (described in WO2014154843 A1). Residual hCD39 mRNA expression relative to untreated cells is depicted. Expression values were normalized to expression of the housekeeping gene HPRT1. Depicted is the mean of triplicate wells+/−SD.
(§2) FIGS. 6A-6B depicts a third screening round where further antisense oligonucleotides were designed. These antisense oligonucleotides were based on efficient antisense oligonucleotides from the first and second screening round. Therefore, hCD39 antisense oligonucleotides were tested in human cancer cell lines HDLM-2 (human Hodgkin's lymphoma) (FIG. 6A) and A-172 (human glioblastoma) (FIG. 6B). HDLM-2 and A-172 cells were treated for 3 days with 10 μM of the respective antisense oligonucleotide. […] Residual hCD39 mRNA expression relative to untreated cells (set as 1) is depicted.
(§3) In order to analyze the efficacy of hCD39 antisense oligonucleotides of the present invention with regard to the knockdown of hCD39 mRNA expression in cancer cell lines, HDLM-2 (human Hodgkin Lymphoma, DSMZ) and A-172 (human glioblastoma, ATCC) cells were treated with a single dose (concentration: 10 μM without addition of any transfection reagent; this process is called gymnotic delivery) of the respective antisense oligonucleotide as shown in FIG. 2A to 2D. hCD39 and HPRT1 mRNA expression was analyzed three days later using the QuantiGene Singleplex assay (Affymetrix) and hCD39 expression values were normalized to HPRT1 values. […] Values of the mean normalized mRNA expression of hCD39 compared to non-treated cells are listed for A-172 (Table 4 for first screening round and Table 5 for second screening round) and HDLM-2 cells (Table 6 for first screening round and Table 7 for second screening round) in the following:
(§4) For a third screening round, new antisense oligonucleotides were designed. These antisense oligonucleotides were based on efficient antisense oligonucleotides from the first screening round with modifications in length, exact position on mRNA and chemical modification pattern. Therefore, hCD39 antisense oligonucleotides were tested in human cancer cell lines (FIG. 6A, Table 10) HDLM-2 (human Hodgkin's lymphoma) and (FIG. 6B, Table 11) A-172 (human glioblastoma). HDLM-2 and A-172 cells were treated for 3 days with 10 μM of the respective antisense oligonucleotide. […] Residual hCD39 mRNA expression relative to untreated cells (set as 1) is depicted.

[2] = test system: hCD39 mRNA; assay: hCD39 mRNA knockdown efficacy screen in A-172 cells (single dose, gymnotic delivery, QuantiGene Singleplex); assay type: cell-based, human; conditions: 10 μM, 3 days; for Mean hCD39 mRNA expression (relative to untreated cells set as 1): first screening round; for Mean hCD39 mRNA expression (relative to untreated cells set as 1) / Relative hCD39 mRNA expression (compared to non-treated cells): normalized to HPRT1; for Relative hCD39 mRNA expression (compared to non-treated cells): second screening round; for Residual hCD39 mRNA expression relative to untreated cells (set as 1): third screening round
Protocol: as §1, §2, §3, §4

| Substance | Mean hCD39 mRNA expression normalized to HPRT1 relative to untreated control = 1 [1] | Relative hCD39 mRNA expression (compared to non-treated cells) [1] | Mean hCD39 mRNA expression (relative to untreated cells set as 1) [2] | Relative hCD39 mRNA expression (compared to non-treated cells) [2] | Residual hCD39 mRNA expression relative to untreated cells (set as 1) [1] | Residual hCD39 mRNA expression relative to untreated cells (set as 1) [2] |
| --- | --- | --- | --- | --- | --- | --- |
| +G*+G*+A*C*A*A*T*G*G*T*T*G*C*+T*C*+A (antisense GGACAATGGTTGCTCA; sugars from the 5' end l3 d10 l1 d1 l1, all phosphorothioate, methylation of C not given here) [A04030H] | 0.07 | 0.38 | 0.19 | 0.10 |  |  |
| +G*+G*+C*G*A*A*A*T*T*G*C*+A*+G*+A (antisense GGCGAAATTGCAGA; sugars from the 5' end l3 d8 l3, all phosphorothioate, methylation of C not given here) [A04001H] | 0.25 | 0.25 | 0.58 | 0.58 |  |  |
| +G*G*+T*T*T*G*T*G*T*G*A*G*+A*G*+C (antisense GGTTTGTGTGAGAGC; sugars from the 5' end ldldddddddddldl, all phosphorothioate, methylation of C not given here) [A04062H] |  |  |  |  | 0.01 | 0.17 |
| +G*T*+C*A*A*T*C*C*T*G*C*T*C*A*+A*+C (antisense GTCAATCCTGCTCAAC; sugars from the 5' end l1 d1 l1 d11 l2, all phosphorothioate, methylation of C not given here) [A04038H] | 0.20 | * | 0.56 | 0.29 |  |  |
| +T*+A*+C*T*C*C*A*G*C*G*T*A*A*+G*+A*+T (antisense TACTCCAGCGTAAGAT; sugars from the 5' end l3 d10 l3, all phosphorothioate, methylation of C not given here) [A04027H] | 0.24 | 0.24 | 0.58 | 0.58 |  |  |
| +T*+A*+G*T*A*A*G*C*C*C*T*G*+A*+T*+G (antisense TAGTAAGCCCTGATG; sugars from the 5' end l3 d9 l3, all phosphorothioate, methylation of C not given here) [A04055H] |  |  |  |  | 0.03 | 0.52 |
| +T*+A*G*A*C*A*T*T*G*T*A*G*+T*+C*+C (antisense TAGACATTGTAGTCC; sugars from the 5' end l2 d10 l3, all phosphorothioate, methylation of C not given here) [A04009H] | 0.15 | 0.15 | 0.28 | 0.29 |  |  |
| +T*+G*+A*T*A*G*C*C*T*T*G*C*+A*+G*+A (antisense TGATAGCCTTGCAGA; sugars from the 5' end l3 d9 l3, all phosphorothioate, methylation of C not given here) [A04014H] | 0.17 | 0.17 | 0.27 | 0.27 |  |  |
| +T*+T*+G*A*A*C*A*C*T*G*C*+G*+A*+T (antisense TTGAACACTGCGAT; sugars from the 5' end l3 d8 l3, all phosphorothioate, methylation of C not given here) [A04003H] | 0.20 | 0.20 | 0.18 | 0.18 |  |  |
| +T*+T*+G*C*A*G*A*G*C*A*T*T*+A*+T*+C (antisense TTGCAGAGCATTATC; sugars from the 5' end l3 d9 l3, all phosphorothioate, methylation of C not given here) [A04007H] | 0.23 | 0.23 | 0.53 | 0.53 |  |  |
| +T*+T*+T*G*T*G*T*G*A*G*A*G*+C*+T*+T (antisense TTTGTGTGAGAGCTT; sugars from the 5' end l3 d9 l3, all phosphorothioate, methylation of C not given here) [A04058H] |  |  |  |  | 0.01 | 0.25 |
| +T*G*+T*A*G*A*G*G*C*T*C*C*C*+C*+C (antisense TGTAGAGGCTCCCCC; sugars from the 5' end l1 d1 l1 d10 l2, all phosphorothioate, methylation of C not given here) [A04006H] | 0.20 | 0.20 | 0.19 | 0.20 |  |  |
